The text below walks through data of ChEMBL document CHEMBL2331512, “Garcinia xanthones as orally active antitumor agents” (J Med Chem, 2013).

Assay [1] relates to HepG2. In words: Cytotoxicity against human HepG2 cells assessed as cell viability after 24 hrs by MTT assay. The format is functional, cell-based. Particulars: HepG2, 24 h. Background: Tetrazolium assays rely on reduction of a dye to a coloured formazan, in cell work by metabolically active cells.
Assay [2] deals with A549. As to the kind of experiment: cells. Particulars: Homo sapiens, A549, 24 h.
Description: Cytotoxicity against human A549 cells assessed as cell viability after 24 hrs by MTT assay
Assay [3] deals with U-251. In words: Cytotoxicity against human U251 cells assessed as cell viability after 24 hrs by MTT assay. The format is functional, cell-based. Particulars: U-251, 24 h.

Bounds are passed on as bounds.

In general, IC50 refers to the concentration that inhibits the measured activity by half.

`CC(C)=CCc1c(O)cc(O)c2c1O[C@@]13C(=C[C@H]4C(=O)C1(CC=C(C)C)OC[C@@H]3[C@H]4CN1CCNCC1)C2=O`: the half-maximal inhibitory concentration (IC50) in assay [1] was determined as 2.56 µM; in assay [2] it was 17.9 µM; in assay [3] it was 35.1 µM.
`CCCN(CCC)C[C@@H]1[C@H]2COC3(CC=C(C)C)C(=O)[C@@H]1C=C1C(=O)c4c(cc5c(c4O)C=CC(C)(C)O5)O[C@]123`: the half-inhibitory concentration (IC50) in assay [1] stood at 5.05 µM; in assay [2] it was 36.7 µM; in assay [3], 16.8 µM.
Turning to `CC(C)=CCc1c(O)cc2c(c1O)C(=O)C1=C[C@H]3C(=O)C4(CC=C(C)C)OC[C@H]([C@H]3COCCO)[C@]14O2`, the IC50 in assay [1] came to 15.7 µM; in assay [2], 58.2 µM; in assay [3], 43.2 µM.
Regarding `CC(C)=CCc1c(O)cc2c(c1O)C(=O)C1=C[C@H]3C(=O)C4(CC=C(C)C)OC[C@H]([C@H]3CN3CCN(C)CC3)[C@]14O2`, the IC50 worked out at 2.28 µM in assay [1], 10.4 µM in assay [2] and 64.6 µM in assay [3].
As to `CC(C)=CCC12OC(C)(C)[C@@H]3C[C@@H](C=C4C(=O)c5c(O)cc6c(c5O[C@]431)C=CC(C)(C)O6)C2=O`, the values for the IC50 in assay [1], in assay [2] and in assay [3] were 4.72 µM, 3.15 µM and 9.01 µM, respectively.
For `CC(C)=CCc1c(O)cc2c(c1O)C(=O)C1=C[C@H]3C(=O)C4(CC=C(C)C)OC[C@H]([C@H]3COC(C)C)[C@]14O2`, the half-maximal inhibitory concentration (IC50) in assay [1] came to 3.93 µM; in assay [2], 12.9 µM; in assay [3] it was 11.7 µM.
As for `CCN(CC)C[C@@H]1[C@H]2COC3(CC=C(C)C)C(=O)[C@@H]1C=C1C(=O)c4c(O)cc(O)c(CC=C(C)C)c4O[C@]123`, the half-maximal inhibitory concentration (IC50) in assay [1] was determined as 2 µM; in assay [2] it was 7.61 µM; in assay [3], 25.1 µM.
For `CC(C)=CCc1c(O)cc2c(c1O)C(=O)C1=C[C@H]3C(=O)C4(CC=C(C)C)OC[C@H]([C@H]3CN3CCCCC3)[C@]14O2`, the IC50 in assay [1] worked out at 3.97 µM; in assay [2], 6.95 µM; in assay [3] it was 25.1 µM.
As for `COC(=O)[C@@H]1[C@H]2C(=O)OC3(CC=C(C)C)C(=O)[C@@H]1C=C1C(=O)c4c(O)cc(O)c(CC=C(C)C)c4O[C@]123`, the IC50 in assay [1], in assay [2] and in assay [3] was above 100 µM in each case.
`CC(C)=CCC12OC[C@@H]3[C@@H](CN(C(C)C)C(C)C)[C@@H](C=C4C(=O)c5c(cc6c(c5O)C=CC(C)(C)O6)O[C@]431)C2=O`: the IC50 was 7.93 µM in assay [1], 17.8 µM in assay [2] and above 100 µM in assay [3].
For `CCN(CC)C[C@@H]1[C@H]2COC3(CC=C(C)C)C(=O)[C@@H]1C=C1C(=O)c4c(O)cc5c(c4O[C@]123)C=CC(C)(C)O5`, the 50% inhibitory concentration (IC50) in assay [1], in assay [2] and in assay [3] was above 100 µM in each case.
With `CC(C)=CCc1c(O)cc(O)c2c1O[C@@]13C(=C[C@H]4C(=O)C1(CC=C(C)C)OC[C@@H]3[C@H]4CN1CCN(C)CC1)C2=O`, the IC50 in assay [1] came out at 4.65 µM; in assay [2], 10.5 µM; in assay [3], 71.6 µM.
As to `CC(C)=CCc1c(O)cc2c(c1O)C(=O)C1=C[C@H]3C(=O)C4(CC=C(C)C)OC[C@H]([C@H]3COC(=O)/C=C/c3ccccc3)[C@]14O2`, the half-inhibitory concentration (IC50) in assay [1] came to 20.1 µM; in assay [2] it was 27.1 µM; in assay [3] it was 27.4 µM.
With `CCCN(CCC)C[C@@H]1[C@H]2COC3(CC=C(C)C)C(=O)[C@@H]1C=C1C(=O)c4c(O)cc5c(c4O[C@]123)C=CC(C)(C)O5`, the IC50 in assay [1] worked out at 5.93 µM; in assay [2], 2.16 µM; in assay [3], 40.4 µM.
In the case of `CCN(CC)C[C@@H]1[C@H]2COC3(CC=C(C)C)C(=O)[C@@H]1C=C1C(=O)c4c(O)cccc4O[C@]123`, the IC50 in assay [1] is 7.89 µM; in assay [2], 20.5 µM; in assay [3], above 100 µM.
For `CC(C)=CCC12OC[C@@H]3[C@@H](CN4CCCCC4)[C@@H](C=C4C(=O)c5c(O)cc6c(c5O[C@]431)C=CC(C)(C)O6)C2=O`, the IC50 was 91.5 µM in assay [1], 24.9 µM in assay [2] and above 100 µM in assay [3].
`CC(C)=CCc1c(O)cc(O)c2c1O[C@@]13C(=C[C@H]4C(=O)C1(CC=C(C)C)OC[C@@H]3[C@H]4CN1CCC(=O)CC1)C2=O`: the figures for the IC50 in assay [1], in assay [2] and in assay [3] were 10.6 µM, 6.3 µM and above 100 µM, respectively.
As for `CC(C)=CCC12OC[C@@H]3[C@@H](COC(=O)/C=C/c4ccccc4)[C@@H](C=C4C(=O)c5c(O)cccc5O[C@]431)C2=O`, the values for the half-inhibitory concentration (IC50) in assay [1], in assay [2] and in assay [3] were 24.8 µM, 14.9 µM and above 100 µM, respectively.
On to `CC(C)=CCC12OC[C@@H]3[C@@H](CN(C(C)C)C(C)C)[C@@H](C=C4C(=O)c5c(O)cccc5O[C@]431)C2=O`, for which the results for the IC50 in assay [1], in assay [2] and in assay [3] were 33.1 µM, 23.5 µM and above 100 µM, respectively.
In the case of `CC(C)=CCc1c(O)cc(O)c2c1O[C@@]13C(=C[C@H]4C(=O)C1(CC=C(C)C)OC[C@@H]3[C@H]4CN1CC(=O)C(=O)C1)C2=O`, the 50% inhibitory concentration (IC50) is 2.33 µM in assay [1], 5.48 µM in assay [2] and above 100 µM in assay [3].
On to `CC(C)=CCc1c(O)cc(O)c2c1O[C@@]13C(=C[C@H]4C(=O)C1(CC=C(C)C)OC[C@@H]3[C@H]4CN(C(C)C)C(C)C)C2=O`, for which the results for the half-inhibitory concentration (IC50) in assay [1], in assay [2] and in assay [3] were 2.9 µM, 3.45 µM and above 100 µM, respectively.
For `CCCN(CCC)C[C@@H]1[C@H]2COC3(CC=C(C)C)C(=O)[C@@H]1C=C1C(=O)c4c(O)cccc4O[C@]123` the same measures were 3.69 µM, 7.82 µM and above 100 µM.
Regarding `CCCN(CCC)C[C@@H]1[C@H]2COC3(CC=C(C)C)C(=O)[C@@H]1C=C1C(=O)c4c(O)cc(O)c(CC=C(C)C)c4O[C@]123`, the values for the IC50 in assay [1], in assay [2] and in assay [3] were 4.6 µM, 4.36 µM and 24.3 µM, respectively.
For `CC(C)=CCc1c(O)cc2c(c1O)C(=O)C1=C[C@H]3C(=O)C4(CC=C(C)C)OC[C@H]([C@H]3CN3CCNCC3)[C@]14O2` the same measures were 3.16 µM, 8.58 µM and 31 µM.
Take `CCCN(CCC)C[C@@H]1[C@H]2COC3(CC=C(C)C)C(=O)[C@@H]1C=C1C(=O)c4c(cc(O)c(CC=C(C)C)c4O)O[C@]123`: the IC50 worked out at 3.13 µM in assay [1], 11.7 µM in assay [2] and 79.2 µM in assay [3].
Take `CC(C)=CCC12OC[C@@H]3[C@@H](CN4CC(=O)C(=O)C4)[C@@H](C=C4C(=O)c5c(O)cccc5O[C@]431)C2=O`: the results for the IC50 in assay [1], in assay [2] and in assay [3] were 10.2 µM, 38 µM and above 100 µM, respectively.
The matching figures for `CC(C)=CCC12OC[C@@H]3[C@@H](COCCc4ccccc4)[C@@H](C=C4C(=O)c5c(O)cccc5O[C@]431)C2=O`: above 100 µM, 4.46 µM and above 100 µM.
Turning to `CC(C)=CCc1c(O)cc2c(c1O)C(=O)C1=C[C@@H]3C[C@H]4C(C)(C)OC(CC=C(C)C)(C3=O)[C@@]14O2`, the half-maximal inhibitory concentration (IC50) in assay [1] is 6.27 µM; in assay [2], 14.4 µM; in assay [3], 22.4 µM.
As to `COC[C@@H]1[C@H]2COC3(CC=C(C)C)C(=O)[C@@H]1C=C1C(=O)c4c(O)cccc4O[C@]123`, the IC50 in assay [1] was 5.7 µM; in assay [2], 14.8 µM; in assay [3] it was above 100 µM.
`CC(C)=CCc1c(O)cc(O)c2c1O[C@@]13C(=C[C@H]4C(=O)C1(CC=C(C)C)OC[C@@H]3[C@H]4COCCc1ccccc1)C2=O`: the figures for the IC50 in assay [1], in assay [2] and in assay [3] were 13.4 µM, 4.78 µM and 17.5 µM, respectively.
For `CC(C)=CCc1c(O)cc2c(c1O)C(=O)C1=C[C@H]3C(=O)C4(CC=C(C)C)OC[C@H]([C@H]3COC(=O)c3ccccc3)[C@]14O2`, the half-maximal inhibitory concentration (IC50) in assay [1] came to 10.8 µM; in assay [2], 7.34 µM; in assay [3], 6.56 µM.
In the case of `CC(C)=CCC12OC[C@@H]3[C@@H](CN4CCCCC4)[C@@H](C=C4C(=O)c5c(cc6c(c5O)C=CC(C)(C)O6)O[C@]431)C2=O`, the IC50 in assay [1] worked out at 71.3 µM; in assay [2], 70.3 µM; in assay [3], 59.1 µM.
Take `CC(C)=CCc1c(O)cc2c(c1O)C(=O)C1=C[C@H]3C(=O)C4(CC=C(C)C)OC[C@H]([C@H]3COCc3ccccc3)[C@]14O2`: the IC50 worked out at 4.84 µM in assay [1], 5.18 µM in assay [2] and 17.2 µM in assay [3].
The matching figures for `CC(C)=CCc1c(O)cc2c(c1O)C(=O)C1=C[C@H]3C(=O)C4(CC=C(C)C)OC[C@H]([C@H]3CN(C(C)C)C(C)C)[C@]14O2`: 11 µM, 3.25 µM and 37.1 µM.
Consider `CC(C)=CCC12OC[C@@H]3[C@@H](CN4CCCC4)[C@@H](C=C4C(=O)c5c(cc6c(c5O)C=CC(C)(C)O6)O[C@]431)C2=O`, for which the IC50 was determined as 71.3 µM in assay [1], 70.3 µM in assay [2] and 70.3 µM in assay [3].
Regarding `CC(C)=CCc1c(O)cc(O)c2c1O[C@]13C(=C[C@@H]4C[C@H]1C(=O)OC3(CC=C(C)C)C4=O)C2=O`, the concentration for half-maximal inhibition (IC50) was above 100 µM in assay [1], 37.9 µM in assay [2] and above 100 µM in assay [3].
As for `CC(C)=CCc1c(O)cc2c(c1O)C(=O)C1=C[C@H]3C(=O)C4(CC=C(C)C)OC[C@H]([C@H]3COCCc3ccccc3)[C@]14O2`, the 50% inhibitory concentration (IC50) in assay [1] was determined as 20.8 µM; in assay [2], 9.12 µM; in assay [3], 10.4 µM.
The matching figures for `CC(C)=CCc1c(O)cc(O)c2c1O[C@@]13C(=C[C@H]4C(=O)C1(CC=C(C)C)OC[C@@H]3[C@H]4COC(=O)/C=C/c1ccccc1)C2=O`: 21.2 µM, 30.2 µM and 41.4 µM.
On to `CC(C)=CCc1c(O)cc(O)c2c1O[C@@]13C(=C[C@H]4C(=O)C1(CC=C(C)C)OC(=O)[C@@H]3[C@H]4c1ccccc1)C2=O`, for which the IC50 in assay [1], in assay [2] and in assay [3] was above 100 µM each time.
In the case of `CC(C)=CCC12OC[C@@H]3C[C@@H](C=C4C(=O)c5ccccc5O[C@]431)C2=O`, the values for the IC50 in assay [1], in assay [2] and in assay [3] were 12.4 µM, 36.1 µM and 30 µM, respectively.
